What was measured:
Type in all cases: in vivo
Chenopodium album [1] = experiment: Test Example 4: herbicidal effect test by treatment of leave and stem in dry field farming (seven days after seeding); conditions: 120 g/10a active ingredient; emulsion sprayed seven days after seeding; evaluated 14 days after treatment
Summary of the method: (§1)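 Duplicate pots were scored 14 days post-spray by dry weight, herbicidal rate = {1 − treated/untreated average dry weight} × 100. The water-diluted emulsion, equivalent to 120 g active ingredient per 10 ares in 100 L, was applied seven days after sowing 20 seeds each into the upper 1 cm of alluvial soil.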

Echinochloa crus-galli [2] = experiment: as above; conditions: 120 g/10a active ingredient; emulsion sprayed seven days after seeding; evaluated 14 days after treatment
Summary of the method: as §1

southern crabgrass [3] = experiment: as above; conditions: 120 g/10a active ingredient; emulsion sprayed seven days after seeding; evaluated 14 days after treatment
Summary of the method: as §1

Amaranthus viridis [4] = experiment: as above; conditions: 120 g/10a active ingredient; emulsion sprayed seven days after seeding; evaluated 14 days after treatment
Summary of the method: as §1

[5] = system: broad leaf weeds (Lindernia pyxidaria and Monochoria vaginalis); experiment: Test Example 1: herbicidal effect test by treatment of rice paddy soil (immediately after seeding); conditions: 120 g/10a active ingredient, dry weight vs untreated area, 14 days after treatment
Summary of the method: (§2)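 Values are herbicidal rates (%) derived from average plant dry weight in treated versus untreated pots 14 days after treatment, run in duplicate. Treatment was a water-diluted emulsion dropped into flooded paddy soil right after sowing, at 120 g active ingredient per 10 ares.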

Scirpus juncoides [6] = experiment: as above; conditions: 120 g/10a active ingredient, dry weight vs untreated area, 14 days after treatment
Summary of the method: as §2

Echinochloa crus-galli [7] = experiment: as above; conditions: 120 g/10a active ingredient, dry weight vs untreated area, 14 days after treatment
Summary of the method: as §2

[8] = system: broad leaf weeds (Lindernia pyxidaria and Monochoria vaginalis); experiment: Test Example 2: herbicidal effect test by treatment during growing period in paddy rice cultivation (seven days after seeding); conditions: 120 g/10a active ingredient, assessed 14 days after treatment, dry weight vs untreated area
Summary of the method: (§3)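 Seeds sown 0–1 cm deep in puddled, fertilised paddy soil with about 3 cm standing water in a glass greenhouse. Diluted emulsion dropped into the water seven days after seeding at 120 g active ingredient per 10 ares. Herbicidal rate (%) from mean dry weight vs untreated, duplicate, 14 days after treatment.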

Scirpus juncoides [9] = experiment: as above; conditions: 120 g/10a active ingredient, assessed 14 days after treatment, dry weight vs untreated area
Summary of the method: as §3

Echinochloa crus-galli [10] = experiment: as above; conditions: 120 g/10a active ingredient, assessed 14 days after treatment, dry weight vs untreated area
Summary of the method: as §3

Chenopodium album [11] = experiment: Test Example 3: herbicidal effect test by treatment of dry field farming soil (one day after seeding); conditions: 120 g/10a active ingredient, evaluated 14 days after treatment
Summary of the method: (§4)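 Alluvial dry-field soil in pots, top 1 cm mixed with 20 seeds per weed species. One day after seeding, the water-diluted emulsion was sprayed onto the soil surface at 100 L per 10 ares (120 g active ingredient per 10 ares). Duplicate pots; herbicidal rate (%) from plant dry weight versus untreated, 14 days after treatment.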

Echinochloa crus-galli [12] = experiment: as above; conditions: 120 g/10a active ingredient, evaluated 14 days after treatment
Summary of the method: as §4

southern crabgrass [13] = experiment: as above; conditions: 120 g/10a active ingredient, evaluated 14 days after treatment
Summary of the method: as §4

Amaranthus viridis [14] = experiment: as above; conditions: 120 g/10a active ingredient, evaluated 14 days after treatment
Summary of the method: as §4

| SMILES | herbicidal effect (herbicidal rate), Chenopodium album (Chenopodium album [1]) [%] | herbicidal effect (herbicidal rate), Echinochloa crus-galli (Echinochloa crus-galli [2]) [%] | herbicidal effect (herbicidal rate), southern crabgrass (southern crabgrass [3]) [%] | herbicidal effect (herbicidal rate), Amaranthus viridis (Amaranthus viridis [4]) [%] | Herbicidal rate (%) Lindernia pyxidaria [5] [%] | Herbicidal rate (%) Monochoria vaginalis [5] [%] | Herbicidal rate (%) Scirpus juncoides (Scirpus juncoides [6]) [%] | Herbicidal rate (%) Echinochloa crus-galli (Echinochloa crus-galli [7]) [%] | Herbicidal rate (%) Lindernia pyxidaria [8] [%] | Herbicidal rate (%) Monochoria vaginalis [8] [%] | Herbicidal rate (%) Scirpus juncoides (Scirpus juncoides [9]) [%] | Herbicidal rate (%) Echinochloa crus-galli (Echinochloa crus-galli [10]) [%] | herbicidal rate, Chenopodium album (Chenopodium album [11]) [%] | herbicidal rate, Echinochloa crus-galli (Echinochloa crus-galli [12]) [%] | herbicidal rate, southern crabgrass (southern crabgrass [13]) [%] | herbicidal rate, Amaranthus viridis (Amaranthus viridis [14]) [%] |
| --- | --- | --- | --- | --- | --- | --- | --- | --- | --- | --- | --- | --- | --- | --- | --- | --- |
| C=CC(C)n1oc(=O)c(Cc2ccccc2NS(=O)(=O)C(F)(F)F)c1C (stereo not shown) [Compound 1-136] | 60 | 70 | 70 | 60 | 80 | 70 | 90 | 100 | 60 | 70 | 90 | 90 | 60 | 100 | 100 | 100 |
| COCC(C)n1oc(=O)c(Cc2ccccc2N(C(=O)OC(C)C)S(=O)(=O)C(F)(F)F)c1C (stereo not shown) [Compound 1-647] | 40 | 90 | 90 | 40 | 90 | 90 | 90 | 90 | 90 | 90 | 90 | 90 | 90 | 90 | 90 | 90 |
| Cc1c(Cc2ccccc2NS(=O)(=O)C(F)(F)F)c(=O)on1C [Compound 1-97] | 40 | 90 | 90 | 40 | 100 | 100 | 100 | 100 | 80 | 60 | 90 | 90 | 0 | 90 | 90 | 0 |
| COCC(C)n1oc(=O)c(Cc2ccccc2N(C(=O)C2CCCCC2)S(=O)(=O)C(F)(F)F)c1C (stereo not shown) [Compound 1-434] | 40 | 90 | 90 | 40 | 90 | 90 | 90 | 90 | 90 | 90 | 90 | 90 | 90 | 90 | 90 | 90 |
| CCC(CC)n1oc(=O)c(Cc2ccccc2N(S(=O)(=O)C(F)(F)F)S(=O)(=O)C(F)(F)F)c1C [Compound 1-965] | 40 | 90 | 90 | 90 | 80 | 100 | 80 | 100 | 50 | 80 | 80 | 100 | 100 | 100 | 100 | 100 |
| Cc1c(Cc2ccccc2N(S(=O)(=O)C(F)(F)F)S(=O)(=O)C(F)(F)F)c(=O)on1CCC(C)(C)C [Compound 1-975] | 40 | 50 | 0 | 50 | 90 | 80 | 90 | 100 | 70 | 80 | 80 | 100 | 90 | 80 | 90 | 90 |
| CCC(=O)N(c1ccccc1Cc1c(C)n(CC(C)(C)C)oc1=O)S(=O)(=O)C(F)(F)F [Compound 1-318] | 40 | 90 | 90 | 40 | 90 | 90 | 90 | 90 | 90 | 90 | 90 | 90 | 90 | 90 | 90 | 90 |
| CCCC(C)n1oc(=O)c(Cc2ccccc2N(C(C)=O)S(=O)(=O)C(F)(F)F)c1C (stereo not shown) [Compound 1-299] | 90 | 90 | 80 | 40 | 100 | 80 | 90 | 100 | 60 | 70 | 90 | 100 | 40 | 90 | 80 | 70 |
| CCC(C)n1oc(=O)c(Cc2ccccc2N(C(C)=O)S(=O)(=O)C(F)(F)F)c1C (stereo not shown) [Compound 1-294] | 40 | 90 | 90 | 40 | 90 | 90 | 90 | 90 | 90 | 90 | 90 | 90 | 90 | 90 | 90 | 90 |
| Cc1c(Cc2ccccc2N(C(=O)Oc2ccccc2)S(=O)(=O)C(F)(F)F)c(=O)on1C(C)(C)C [Compound 1-762] | 40 | 90 | 90 | 40 | 90 | 90 | 90 | 90 | 90 | 90 | 90 | 90 | 90 | 90 | 90 | 90 |

Source: patent US11109593B2, “Isoxazolin-5-one derivative and herbicide containing same as active ingredient” (HOKKO CHEMICAL INDUSTRY CO., LTD., priority 2017, dated 2021)
